Data as given in patent publication US8952169B2 (Genentech, Inc., priority 2012, dated 2015).

Experiments:
hNav1.7 [1] = target: T1, hNav1.7 (Homo sapiens (Human), UniProt Q15858); assay: Tritiated aryl sulfonamide binding to membranes from cells expressing hNav1.7 and the β1 subunit (competitive binding); settings: membranes with hNav1.7 and β1 subunit; [3H]compound displacement, 18 h, room temperature; read-out: NaV1.7 395 Memb Binding (IC50)
Experimental: Tritiated Aryl Sulfonamide Binding to Membranes Isolated from Cells that Heterologously Express hNav1.7 and the β1 Subunit
Preparation of membranes containing recombinantly expressed sodium channels: Frozen recombinant cell pellets were thawed on ice and diluted to 4 times the cell pellet weight with ice cold 50 mM Tris HCl, pH 7.4 buffer. The cell suspensions were homogenized on ice using a motorized glass dounce homogeniser. Homogenates were further diluted 8.4 times with ice cold 50 mM Tris HCl, pH 7.4 buffer and then centrifuged at 200×g at 4° C. for 15 min. The supernatants were collected and centrifuged at 10000×g at 4° C. for 50 min. The pellets were then re-suspended in 100 mM NaCl, 20 mM Tris HCl, pH 7.4 buffer containing 1% v/v protease inhibitors (Calbiochem) and re-homogenized on ice. The homogenized membranes were then processed through a syringe equipped with a 26 gauge needle. Protein concentrations were determined by Bradford Assay and the membranes were stored at −80° C.
Radioligand Binding Studies: Saturation experiments. A representative compound of formula (I) was tritiated. Three tritiums were incorporated in place of methyl hydrogens to generate [^3H]compound. Binding of this radioligand was preformed in 5 mL borosilicate glass test tubes at room temperature. Binding was initiated by adding membranes to increasing concentrations of [^3H]compound in 100 mM NaCl, 20 mM Tris HCl, pH 7.4 buffer containing 0.01% w/v bovine serum albumin (BSA) for 18 h. Non-specific binding was determined in the presence of 1 μM unlabelled compound. After 18 h, the reactants were filtered through GF/C glass fiber filters presoaked in 0.5% w/v polyethylene imine. […] [^3H]compound bound to filters was quantified by liquid scintillation counting.
Competitive binding experiments. Binding reactions were preformed in 96-well polypropylene plates at room temperature for 18 h. In 360 μL, membranes were incubated with 100 μM [^3H]compound and increasing concentrations of Test Compound. Non-specific binding was defined in the presence of 1 μM unlabelled compound. Reactions were transferred and filtered through 96-well glass fiber/C filter plates presoaked with 0.5% polyethylene imine. The filtered reactions were washed 5 times with 200 L ice cold buffer containing 0.25% BSA. Bound radioactivity was determined by liquid scintillation counting.
Data Analysis: For saturation experiments, non-specific binding was subtracted from total binding to provide specific binding and these values were recalculated in terms of pmol ligand bound per mg protein. Saturation curves were constructed and dissociation constants were calculated using the single site ligand binding model: Beq=(Bmax*X)/(X+Kd), where Beq is the amount of ligand bound at equilibrium, Bmax is the maximum receptor density, Kd is the dissociation constant for the ligand, and X is the free ligand concentration.

hNav1.7 [2] = target: T1, hNav1.7; assay: Patch voltage clamp electrophysiology (PatchXpress), HEK-293 cells, inactivated state block; type: cell-based; settings: HEK-293 cells, β1 coexpressed; inactivated state, holding −60 mV; read-out: EP_PX 293 hNav1.7 (IC50)

T1 sequence (Q15858 whole entry, looked up): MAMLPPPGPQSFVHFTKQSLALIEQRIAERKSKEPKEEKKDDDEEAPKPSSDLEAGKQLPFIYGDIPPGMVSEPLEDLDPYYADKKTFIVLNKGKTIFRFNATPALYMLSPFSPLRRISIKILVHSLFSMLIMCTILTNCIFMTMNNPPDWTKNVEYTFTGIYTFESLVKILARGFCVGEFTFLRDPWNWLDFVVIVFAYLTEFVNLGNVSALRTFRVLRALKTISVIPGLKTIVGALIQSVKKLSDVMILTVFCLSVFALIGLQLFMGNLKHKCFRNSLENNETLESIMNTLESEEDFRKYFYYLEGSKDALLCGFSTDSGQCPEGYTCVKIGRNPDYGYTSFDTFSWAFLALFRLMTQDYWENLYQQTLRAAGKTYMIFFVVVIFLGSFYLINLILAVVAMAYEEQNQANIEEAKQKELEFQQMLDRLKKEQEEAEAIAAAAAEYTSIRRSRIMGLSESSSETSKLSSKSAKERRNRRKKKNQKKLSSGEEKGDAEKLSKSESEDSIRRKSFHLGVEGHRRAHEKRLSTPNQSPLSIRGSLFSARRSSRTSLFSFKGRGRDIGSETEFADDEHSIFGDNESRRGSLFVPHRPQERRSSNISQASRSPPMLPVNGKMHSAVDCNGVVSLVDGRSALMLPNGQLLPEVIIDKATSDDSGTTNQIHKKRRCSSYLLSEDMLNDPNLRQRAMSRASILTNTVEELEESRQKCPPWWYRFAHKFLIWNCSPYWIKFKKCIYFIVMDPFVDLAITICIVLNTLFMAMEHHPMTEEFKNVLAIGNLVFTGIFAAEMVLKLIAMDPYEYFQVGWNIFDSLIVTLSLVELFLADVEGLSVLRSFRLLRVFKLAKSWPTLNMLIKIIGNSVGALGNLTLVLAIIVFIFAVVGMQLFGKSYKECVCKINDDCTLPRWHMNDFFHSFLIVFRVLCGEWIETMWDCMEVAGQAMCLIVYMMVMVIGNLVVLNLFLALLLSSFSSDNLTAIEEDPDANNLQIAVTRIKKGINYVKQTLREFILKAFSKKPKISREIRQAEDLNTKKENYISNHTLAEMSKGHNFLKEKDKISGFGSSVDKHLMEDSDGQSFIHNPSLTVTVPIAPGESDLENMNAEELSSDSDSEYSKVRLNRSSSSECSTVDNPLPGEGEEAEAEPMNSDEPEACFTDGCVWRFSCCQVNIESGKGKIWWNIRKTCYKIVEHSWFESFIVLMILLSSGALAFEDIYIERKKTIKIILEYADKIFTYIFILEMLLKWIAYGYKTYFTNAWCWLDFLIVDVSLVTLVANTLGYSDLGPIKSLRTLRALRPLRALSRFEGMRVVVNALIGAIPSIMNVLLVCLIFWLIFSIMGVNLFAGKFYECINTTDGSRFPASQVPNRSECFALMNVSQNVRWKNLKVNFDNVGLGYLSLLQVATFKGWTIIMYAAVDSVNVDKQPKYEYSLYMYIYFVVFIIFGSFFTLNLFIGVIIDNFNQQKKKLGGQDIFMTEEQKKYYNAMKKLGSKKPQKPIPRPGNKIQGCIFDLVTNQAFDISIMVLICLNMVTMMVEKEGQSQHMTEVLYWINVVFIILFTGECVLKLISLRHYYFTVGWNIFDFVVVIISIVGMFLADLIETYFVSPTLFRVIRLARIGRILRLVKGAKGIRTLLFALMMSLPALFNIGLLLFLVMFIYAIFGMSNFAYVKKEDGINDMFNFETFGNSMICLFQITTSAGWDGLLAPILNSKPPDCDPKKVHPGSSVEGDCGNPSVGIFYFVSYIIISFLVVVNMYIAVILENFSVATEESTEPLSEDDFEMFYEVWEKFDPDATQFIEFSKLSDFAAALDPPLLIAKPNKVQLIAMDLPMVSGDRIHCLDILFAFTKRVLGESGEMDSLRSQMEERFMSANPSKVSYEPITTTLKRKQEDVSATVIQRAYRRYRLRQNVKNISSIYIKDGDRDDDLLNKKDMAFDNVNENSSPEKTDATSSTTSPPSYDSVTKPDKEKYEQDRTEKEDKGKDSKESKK
T1 sequence (Q07699 whole entry partner, looked up): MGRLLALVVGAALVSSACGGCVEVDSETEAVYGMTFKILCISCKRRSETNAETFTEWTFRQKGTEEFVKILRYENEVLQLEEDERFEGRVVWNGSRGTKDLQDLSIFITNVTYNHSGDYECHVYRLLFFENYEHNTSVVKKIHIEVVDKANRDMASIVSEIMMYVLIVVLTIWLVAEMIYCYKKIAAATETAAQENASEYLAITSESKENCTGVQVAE

IC50 (hNav1.7 [1]) [nM] | IC50 (hNav1.7 [2]) [nM] | Compound
4 | 6 | O=C(NS(=O)(=O)N1CCC1)c1cc(C2CC2)c(OCC23CC4CC(C2)C(F)(F)C(C4)C3)cc1F
9 | 5 | N#CC1(COc2cc(F)c(C(=O)NS(=O)(=O)N3CCC3)cc2C2CC2)C2CC3CC(C2)CC1C3 (stereo not drawn)
4 | 8 | CC1(C)CCCC(COc2cc(F)c(C(=O)NS(=O)(=O)N3CCC3)cc2C2CC2)C1 (stereo not drawn)
4 | 8 | O=C(NS(=O)(=O)N1CCC1)c1cc(C2CC2)c(OCC23CC4CC(CC(CF)(C4)C2)C3)cc1F
19 | 10 | COCCS(=O)(=O)NC(=O)c1cc(C2CC2)c(OCC23CCCCC2C3)cc1F (stereo not drawn)
26 | 23 | O=C(NS(=O)(=O)N1CCC(O)CC1)c1cc(C2CC2)c(OCC23CC4CC(CC(C4)C2)C3)cc1F
4 | 6 | O=C(NS(=O)(=O)N1CCC1)c1cc(C2CC2)c(OCC2CCC3(CC2)CC3)cc1F
1500 | 1000 | CS(=O)(=O)NC(=O)c1ccc(OC[C@H]2CC[C@H](C(F)(F)F)CC2)cc1F
160 | 310 | [2H]C1([2H])C([2H])([2H])C([2H])([2H])C([2H])(COc2cc(F)c(C(=O)NS(=O)(=O)N3CCC3)cc2Cl)C([2H])([2H])C1([2H])[2H]
11 | 100 | [2H]C1([2H])C([2H])([2H])C([2H])([2H])C([2H])(COc2cc(F)c(C(=O)NS(=O)(=O)N3CCC3)cc2C2CC2)C([2H])([2H])C1([2H])[2H]
14 | 41 | O=C(NS(=O)(=O)C1CC1)c1cc(C2CC2)c(O[C@@H]2C[C@@H]3CC[C@H]2C3)cc1F
31 | 80 | O=C(NS(=O)(=O)N1CCC1)c1cc(C2CC2)c(O[C@@H]2C[C@@H]3CC[C@H]2C3)cc1F
45 | 230 | CS(=O)(=O)NC(=O)c1cc(C2CC2)c(O[C@@H]2C[C@@H]3CC[C@H]2C3)cc1F
230 | 80 | O=C(NS(=O)(=O)N1CCC1)c1cc(C2CC2)c(OCCC2CCC(F)(F)CC2)cc1F
70 | 32 | O=C(NS(=O)(=O)N1CCC1)c1cc(C2CC2)c(O[C@H]2C[C@@H]3CC[C@H]2C3)cc1F
74 | 24 | CS(=O)(=O)NC(=O)c1cc(C2CC2)c(O[C@H]2C[C@@H]3CC[C@H]2C3)cc1F
1300 | 5200 | O=C(NS(=O)(=O)N1CCC1)c1cc(F)c(OCC23CC4CC(CC(C4)C2)C3)c(Cl)c1F
– | 6.9 | 4-(adamantan-1-ylmethoxy)-3-chloro-N-(methylsulfonyl)benzamide [Example 12]
10000 | – | CS(=O)(=O)NC(=O)c1ccc(OCC23CC4CC(CC(O)(C4)C2)C3)c(Cl)c1 [Example 24]
29 | – | CS(=O)(=O)NC(=O)c1cc(Cl)c(OCC2CCC3(CC2)CC3)cc1F [Example 50]
100 | – | O=C(NS(=O)(=O)N1CCC1)c1ccc(OCC23CC4CC(CC(C4)C2)C3)c(C(F)(F)F)c1 [Example 53]
480 | – | COc1cc(OCC23CC4CC(CC(C4)C2)C3)c(Cl)cc1C(=O)NS(C)(=O)=O [Example 56]
58 | – | CS(=O)(=O)NC(=O)c1ccc(OCC23CC4CC(CC(C4)C2)C3)c(C(F)(F)F)c1 [Example 62]
121 | – | CN(C)S(=O)(=O)NC(=O)c1cc(Cl)c(OCC2CCC3(CC2)CC3)cc1F [Example 88, 5-chloro-N-(dimethylsulfamoyl)-2-fluoro-4-(spiro[2.5]octan-6-ylmethoxy)benzamide]
234 | – | CN(C)S(=O)(=O)NC(=O)c1cc(Cl)c(OCC23CC4CC(CC(F)(C4)C2)C3)cc1F [Example 89, 5-chloro-N-(dimethylsulfamoyl)-2-fluoro-4-[(3-fluoro-1-adamantyl)methoxy]benzamide]
299 | – | CN(C)S(=O)(=O)NC(=O)c1cc(Cl)c(OCC2CCCCCC2)cc1F [Example 100]

IC50 (hNav1.7 [1]) [nM] | IC50 (hNav1.7 [2]) [nM] | Compound
291 | – | CS(=O)(=O)NC(=O)c1cc(Cl)c(OC2CCC(C(F)(F)F)CC2)cc1F (stereo not drawn) [Example 128]
125 | – | CS(=O)(=O)NC(=O)c1cc(Cl)c(OC2CCC3(CCCC3)CC2)cc1F [Example 133]
1120 | – | CN(C)S(=O)(=O)NC(=O)c1cc(Cl)c(OC2CCC(C(F)(F)F)CC2)cc1F (stereo not drawn) [Example 138]
885 | – | CN(C)S(=O)(=O)NC(=O)c1cc(Cl)c(OCCC2CCC2)cc1F [Example 140]
50 | – | CS(=O)(=O)NC(=O)c1cc(Cl)c(OCC2(F)C3CC4CC(C3)CC2C4)cc1F (stereo not drawn) [Example 176]
250 | – | CNS(=O)(=O)NC(=O)c1cnc(OCC23CC4CC(CC(C4)C2)C3)c(C2CC2)c1 [Example 178]
1200 | – | CS(=O)(=O)NC(=O)c1ccc(C2C3CC4CC(C3)CC2C4)c(Cl)c1 (stereo not drawn) [Example 180]
8 | – | O=C(NS(=O)(=O)N1CC(F)C1)c1cc(C2CC2)c(OCC2CCCCC2)cc1F [Example 210]
2 | – | O=C(NS(=O)(=O)C1CCC1)c1cc(C2CC2)c(OCC23CC4CC(CC(C4)C2)C3)cc1F [Example 211]
990 | – | CC(O)CS(=O)(=O)NC(=O)c1ccc(OCC23CC4CC(CC(C4)C2)C3)cc1F (stereo not drawn) [Example 215]
9 | – | O=C(NS(=O)(=O)N1CCC1)c1cc(I)c(OCC23CC4CC(CC(C4)C2)C3)cc1F [Example 222]
30 | – | O=C(NS(=O)(=O)N1CC(F)C1)c1cc(C2CC2)c(OCC2CCC(F)(F)CC2)cc1F [Example 226]
67 | – | O=C(NS(=O)(=O)N1CC2(COC2)C1)c1cc(C2CC2)c(OCC23CC4CC(CC(C4)C2)C3)cc1F [Example 237]
20 | – | O=C(NS(=O)(=O)C1CC1)c1cc(C2CC2)c(OCC2CCCC2)cc1F [Example 242]
49 | – | O=C(NS(=O)(=O)C1CC1)c1cc(Cl)c(OCC2CC3CC3C2)cc1F (stereo not drawn) [Example 266]
81 | – | O=C(NS(=O)(=O)C1CC1)c1cc(Cl)c(OCC2CC3C(C2)C3(F)F)cc1F (stereo not drawn) [Example 322]
6 | – | C/C=C/c1cc(C(=O)NS(=O)(=O)N2CCC2)c(F)cc1OCC12CC3CC(CC(C3)C1)C2 [Example 399]
4 | – | O=C(NS(=O)(=O)C1CC1)c1cc(C2CC2)c(OCC23CCCCC2C3(F)F)cc1F (stereo not drawn) [Example 433, 5-cyclopropyl-N-cyclopropylsulfonyl-4-[(7,7-difluoronorcaran-1-yl)methoxy]-2-fluoro-benzamide]
11 | – | O=C(NS(=O)(=O)N1CCC1)c1cc(C2CC2)c(OCC23CCCCC2C3(F)F)cc1F (stereo not drawn) [Example 434]
3 | – | O=C(NS(=O)(=O)C1CC1)c1cc(C2CC2)c(OC[C@H]2CC[C@H](C(F)(F)F)CC2)cc1F [Example 435, 5-cyclopropyl-N-(cyclopropylsulfonyl)-2-fluoro-4-(((1r,4r)-4-(trifluoromethyl)cyclohexyl)methoxy)benzamide]
9 | – | O=C(NS(=O)(=O)N1CCC1)c1cc(C2CC2)c(OC[C@H]2CC[C@H](C(F)(F)F)CC2)cc1F [Example 436, N-(azetidin-1-ylsulfonyl)-5-cyclopropyl-2-fluoro-4-(((1r,4r)-4-(trifluoromethyl)cyclohexyl)methoxy)benzamide]
28 | – | CS(=O)(=O)NC(=O)c1cc(C2CC2)c(OC2CN(C(c3ccccc3)c3ccccc3)C2)cc1F [Example 439, 4-(1-benzhydrylazetidin-3-yloxy)-5-cyclopropyl-2-fluoro-N-(methylsulfonyl)benzamide]
10 | – | CCS(=O)(=O)NC(=O)c1cc(C2CC2)c(OCC2CN(C(c3ccccc3)c3ccccc3)C2)cc1F [Example 441, 4-((1-benzhydrylazetidin-3-yl)methoxy)-5-cyclopropyl-N-(ethylsulfonyl)-2-fluorobenzamide]
4.2 | – | CC1(COc2cc(F)c(C(=O)NS(=O)(=O)N3CC(F)C3)cc2C2CC2)CCCCC1 [Example 447, 5-cyclopropyl-2-fluoro-N-((3-fluoroazetidin-1-yl)sulfonyl)-4-((1-methylcyclohexyl)methoxy)benzamide]
18 | – | O=C(NS(=O)(=O)N1CCC1)c1cc(C2CC2)c(OCC2CC3CC3C2)cc1F (stereo not drawn) [Example 454]

Compound | IC50 (hNav1.7 [1]) [nM] | IC50 (hNav1.7 [2]) [nM]
trans-5-cyclopropyl-N-(cyclopropylsulfonyl)-2-fluoro-4-((4-(trifluoromethyl)-cyclohexyl)methoxy)benzamide [Example 259] | 20 | –
